# The source made the active and inactive calls.
# What was measured:
# [1] = A cytotoxicity screen of small molecule inhibitors of the PhoP region in Salmonella typhi identified in the primary screen. [Related pubchem assays: 1850, 1864, 1985 ]; type: functional
# Procathepsin L = Procathepsin L (Homo sapiens, UniProt P07711)
# Aspartyl aminopeptidase = biological target: T1, Aspartyl aminopeptidase (Plasmodium falciparum 3D7, UniProt Q8I2J3)
# T1 sequence (Q8I2J3 whole entry): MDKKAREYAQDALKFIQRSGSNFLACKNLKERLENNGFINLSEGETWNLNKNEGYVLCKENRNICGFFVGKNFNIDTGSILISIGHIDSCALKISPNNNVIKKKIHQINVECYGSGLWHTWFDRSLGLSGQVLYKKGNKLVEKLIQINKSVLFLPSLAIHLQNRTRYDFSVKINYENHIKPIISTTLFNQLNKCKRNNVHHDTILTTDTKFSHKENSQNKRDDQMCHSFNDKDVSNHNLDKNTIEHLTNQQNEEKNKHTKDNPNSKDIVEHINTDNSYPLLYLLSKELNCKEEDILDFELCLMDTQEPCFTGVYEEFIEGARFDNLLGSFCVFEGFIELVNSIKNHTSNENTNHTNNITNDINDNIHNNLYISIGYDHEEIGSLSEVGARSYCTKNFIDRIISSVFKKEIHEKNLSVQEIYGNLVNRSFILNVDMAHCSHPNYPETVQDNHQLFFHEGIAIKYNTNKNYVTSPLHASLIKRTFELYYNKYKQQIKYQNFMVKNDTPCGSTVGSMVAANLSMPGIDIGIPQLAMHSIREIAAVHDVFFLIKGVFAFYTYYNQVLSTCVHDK
# [2] = cytotoxicity in HEK-293T cells, dose response, cytotoxicity control for BCR NF-kB inhibitor project, luminescence, B-cell screen hits (AID 489021); type: functional, cell-based;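 note: HEK-293T cells carrying an NF-kB luciferase reporter; cells exposed to compound for about 14 hours before viability readout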
# [3] = biological target: Luciferin 4-monooxygenase (Photinus pyralis, UniProt P08659); experiment: Counter Screen for Luciferase-based Assay Positives. [Related pubchem assays: 620, 618, 411 ]
# Luciferin 4-monooxygenase, sequence (P08659 whole entry): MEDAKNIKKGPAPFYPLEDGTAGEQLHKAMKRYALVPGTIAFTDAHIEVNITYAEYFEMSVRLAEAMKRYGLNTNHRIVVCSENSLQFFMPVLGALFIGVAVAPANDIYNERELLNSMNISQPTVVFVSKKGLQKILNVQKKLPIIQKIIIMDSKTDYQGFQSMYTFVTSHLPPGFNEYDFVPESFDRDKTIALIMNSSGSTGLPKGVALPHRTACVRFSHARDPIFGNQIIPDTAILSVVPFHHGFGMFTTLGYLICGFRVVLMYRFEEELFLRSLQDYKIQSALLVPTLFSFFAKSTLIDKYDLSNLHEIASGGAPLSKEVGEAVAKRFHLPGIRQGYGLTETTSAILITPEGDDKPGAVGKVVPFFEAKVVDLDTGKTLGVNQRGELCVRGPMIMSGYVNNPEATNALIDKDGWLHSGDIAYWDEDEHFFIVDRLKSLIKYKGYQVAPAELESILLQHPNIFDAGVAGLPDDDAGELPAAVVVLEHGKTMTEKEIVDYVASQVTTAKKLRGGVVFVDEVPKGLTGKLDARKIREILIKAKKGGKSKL
# [4] = Luminescence Cell-Based Dose Response HTS to Identify Inhibitors of 5'UTR Stem-Loop Driven Prion Protein mRNA Translation in H4 Neuroglioblastoma Cells. [Related pubchem assays: 1827 (Project Summary), 1813 (Primary HTS)]; type: functional
# [5] = inhibitors of SNCA 5'UTR-driven reporter translation, confirmation, H4 neuroglioma cells, luminescence (AID 1988); type: functional, cell-based
# [6] = biological target: T2, Zinc finger protein mex-5 (Caenorhabditis elegans, UniProt Q9XUB2); experiment: MEX-5/TCR-2 RNA interaction inhibitors, dose response, biochemical, C. elegans, fluorescence polarization (AID 1960)
# T2 sequence (Q9XUB2 whole entry): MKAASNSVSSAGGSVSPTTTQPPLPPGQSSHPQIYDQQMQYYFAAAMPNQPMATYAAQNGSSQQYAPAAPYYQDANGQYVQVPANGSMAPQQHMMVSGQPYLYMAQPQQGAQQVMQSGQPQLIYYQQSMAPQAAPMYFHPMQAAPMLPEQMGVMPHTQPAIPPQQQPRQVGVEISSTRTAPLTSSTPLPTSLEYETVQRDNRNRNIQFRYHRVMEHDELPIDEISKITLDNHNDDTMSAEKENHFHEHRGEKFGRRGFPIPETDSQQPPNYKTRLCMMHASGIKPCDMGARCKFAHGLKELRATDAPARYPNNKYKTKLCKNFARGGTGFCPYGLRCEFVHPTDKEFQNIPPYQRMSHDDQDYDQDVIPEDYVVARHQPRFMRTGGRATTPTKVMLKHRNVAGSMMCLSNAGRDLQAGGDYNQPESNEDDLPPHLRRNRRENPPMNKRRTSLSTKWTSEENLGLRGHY
# HT-1080 = experiment: cytotoxicity in HT1080 fibrosarcoma cells, cell-based, fluorescence readout (AID 620); type: functional; conditions: Homo sapiens
# [7] = biological target: Glyceraldehyde-3-phosphate dehydrogenase (Homo sapiens, UniProt P04406)
# Glyceraldehyde-3-phosphate dehydrogenase, sequence (P04406 whole entry, the tested form may be a part): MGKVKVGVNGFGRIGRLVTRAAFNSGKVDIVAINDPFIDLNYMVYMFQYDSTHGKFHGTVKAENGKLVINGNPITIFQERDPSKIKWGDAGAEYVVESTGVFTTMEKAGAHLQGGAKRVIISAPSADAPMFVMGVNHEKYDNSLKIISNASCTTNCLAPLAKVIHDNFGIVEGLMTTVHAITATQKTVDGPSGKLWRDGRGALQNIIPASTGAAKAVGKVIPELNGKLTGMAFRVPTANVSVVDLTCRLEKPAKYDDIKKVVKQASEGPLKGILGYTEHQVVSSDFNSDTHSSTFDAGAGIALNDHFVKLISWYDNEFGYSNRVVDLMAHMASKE
# [8] = biological target: T3, RNA-binding protein pos-1 (Caenorhabditis elegans, UniProt G5EF15); experiment: inhibitors of POS-1/mex-3 RNA binding, dose response, biochemical, fluorescence polarization (AID 1964);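 note: purified POS-1 fused to maltose binding protein made in E. coli; potency of compounds blocking POS-1 binding to fluorescent RNA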
# T3 sequence (G5EF15 whole entry): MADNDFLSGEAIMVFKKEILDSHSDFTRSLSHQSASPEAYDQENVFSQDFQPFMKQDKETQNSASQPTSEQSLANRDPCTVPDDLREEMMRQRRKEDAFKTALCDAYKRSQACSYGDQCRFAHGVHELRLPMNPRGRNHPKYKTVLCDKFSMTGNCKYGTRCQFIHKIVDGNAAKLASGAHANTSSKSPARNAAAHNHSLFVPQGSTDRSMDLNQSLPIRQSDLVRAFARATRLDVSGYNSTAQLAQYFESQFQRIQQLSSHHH
# [9] = inhibitors of firefly luciferase expression or activity, dose response, H4 neuroglioma cells, luminescence (AID 1990); type: functional, cell-based
# [10] = biological target: Heat shock protein HSP 90-alpha (Homo sapiens, UniProt P07900); experiment: Luminescence-based dose response biochemical high throughput screening assay for inhibitors of the Heat Shock Protein 90 (HSP90). [Related pubchem assays: 1831 (Summary AID.), 1846 (Confirmation screen.), 1789 (Primary screen.)]
# [11] = biological target: Peroxisome proliferator-activated receptor gamma/Nuclear receptor coactivator 3 (Homo sapiens, UniProt P37231); type: functional;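 note: agonist potency for raising coactivator recruitment to the receptor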
# [12] = biological target: T4, Rac GTPase-activating protein 1 (Homo sapiens, UniProt Q9H0H5); experiment: MgcRacGAP GTPase-activating activity inhibitors, confirmation, biochemical, ADP Hunter fluorescence, primary and confirmatory (AID 624330); type: functional
# T4 sequence (Q9H0H5 whole entry): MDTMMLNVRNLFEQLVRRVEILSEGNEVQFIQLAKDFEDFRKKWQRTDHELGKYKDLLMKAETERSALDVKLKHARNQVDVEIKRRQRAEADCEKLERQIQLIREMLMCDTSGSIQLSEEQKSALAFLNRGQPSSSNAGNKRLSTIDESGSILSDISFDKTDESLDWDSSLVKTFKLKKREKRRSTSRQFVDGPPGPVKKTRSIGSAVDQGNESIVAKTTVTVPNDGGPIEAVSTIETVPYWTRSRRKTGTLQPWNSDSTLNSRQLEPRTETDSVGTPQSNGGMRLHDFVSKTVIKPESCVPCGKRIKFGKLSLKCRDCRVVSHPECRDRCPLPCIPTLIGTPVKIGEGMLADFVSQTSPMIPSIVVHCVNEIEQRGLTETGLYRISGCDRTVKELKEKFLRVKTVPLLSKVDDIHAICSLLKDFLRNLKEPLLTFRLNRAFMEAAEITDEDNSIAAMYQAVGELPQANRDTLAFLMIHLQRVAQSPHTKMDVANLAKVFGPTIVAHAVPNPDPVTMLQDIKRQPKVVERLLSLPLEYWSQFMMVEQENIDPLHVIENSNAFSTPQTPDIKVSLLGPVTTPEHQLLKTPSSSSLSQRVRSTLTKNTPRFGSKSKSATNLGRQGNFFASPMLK
# [13] = biological target: Peroxisome proliferator-activated receptor gamma/Nuclear receptor coactivator 1 (Homo sapiens, UniProt P37231); type: functional;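 note: agonist potency as compounds enhance coactivator SRC-1 recruitment to PPARgamma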
# [14] = biological target: Peroxisome proliferator-activated receptor gamma/Nuclear receptor coactivator 2 (Homo sapiens, UniProt P37231); type: functional;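 note: agonist potency for raising coactivator recruitment to the receptor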
# Peroxisome proliferator-activated receptor gamma/Nuclear receptor coactivator 2, sequence (P37231 whole entry): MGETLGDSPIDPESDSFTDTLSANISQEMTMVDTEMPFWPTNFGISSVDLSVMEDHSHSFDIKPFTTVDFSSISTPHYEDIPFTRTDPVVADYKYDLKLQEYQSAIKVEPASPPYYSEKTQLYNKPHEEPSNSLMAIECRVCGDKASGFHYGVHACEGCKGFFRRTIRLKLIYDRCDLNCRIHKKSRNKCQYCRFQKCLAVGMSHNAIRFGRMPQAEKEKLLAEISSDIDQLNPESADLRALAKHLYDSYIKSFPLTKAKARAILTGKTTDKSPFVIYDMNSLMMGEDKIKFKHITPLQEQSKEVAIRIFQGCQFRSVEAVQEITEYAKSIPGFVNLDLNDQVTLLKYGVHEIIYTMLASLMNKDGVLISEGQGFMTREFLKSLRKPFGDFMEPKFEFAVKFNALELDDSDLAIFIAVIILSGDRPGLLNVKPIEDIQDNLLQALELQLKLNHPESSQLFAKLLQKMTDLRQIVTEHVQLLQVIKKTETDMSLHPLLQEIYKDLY
# Peroxisome proliferator-activated receptor gamma/Nuclear receptor coactivator 2, sequence (Q15596 whole entry, further chain): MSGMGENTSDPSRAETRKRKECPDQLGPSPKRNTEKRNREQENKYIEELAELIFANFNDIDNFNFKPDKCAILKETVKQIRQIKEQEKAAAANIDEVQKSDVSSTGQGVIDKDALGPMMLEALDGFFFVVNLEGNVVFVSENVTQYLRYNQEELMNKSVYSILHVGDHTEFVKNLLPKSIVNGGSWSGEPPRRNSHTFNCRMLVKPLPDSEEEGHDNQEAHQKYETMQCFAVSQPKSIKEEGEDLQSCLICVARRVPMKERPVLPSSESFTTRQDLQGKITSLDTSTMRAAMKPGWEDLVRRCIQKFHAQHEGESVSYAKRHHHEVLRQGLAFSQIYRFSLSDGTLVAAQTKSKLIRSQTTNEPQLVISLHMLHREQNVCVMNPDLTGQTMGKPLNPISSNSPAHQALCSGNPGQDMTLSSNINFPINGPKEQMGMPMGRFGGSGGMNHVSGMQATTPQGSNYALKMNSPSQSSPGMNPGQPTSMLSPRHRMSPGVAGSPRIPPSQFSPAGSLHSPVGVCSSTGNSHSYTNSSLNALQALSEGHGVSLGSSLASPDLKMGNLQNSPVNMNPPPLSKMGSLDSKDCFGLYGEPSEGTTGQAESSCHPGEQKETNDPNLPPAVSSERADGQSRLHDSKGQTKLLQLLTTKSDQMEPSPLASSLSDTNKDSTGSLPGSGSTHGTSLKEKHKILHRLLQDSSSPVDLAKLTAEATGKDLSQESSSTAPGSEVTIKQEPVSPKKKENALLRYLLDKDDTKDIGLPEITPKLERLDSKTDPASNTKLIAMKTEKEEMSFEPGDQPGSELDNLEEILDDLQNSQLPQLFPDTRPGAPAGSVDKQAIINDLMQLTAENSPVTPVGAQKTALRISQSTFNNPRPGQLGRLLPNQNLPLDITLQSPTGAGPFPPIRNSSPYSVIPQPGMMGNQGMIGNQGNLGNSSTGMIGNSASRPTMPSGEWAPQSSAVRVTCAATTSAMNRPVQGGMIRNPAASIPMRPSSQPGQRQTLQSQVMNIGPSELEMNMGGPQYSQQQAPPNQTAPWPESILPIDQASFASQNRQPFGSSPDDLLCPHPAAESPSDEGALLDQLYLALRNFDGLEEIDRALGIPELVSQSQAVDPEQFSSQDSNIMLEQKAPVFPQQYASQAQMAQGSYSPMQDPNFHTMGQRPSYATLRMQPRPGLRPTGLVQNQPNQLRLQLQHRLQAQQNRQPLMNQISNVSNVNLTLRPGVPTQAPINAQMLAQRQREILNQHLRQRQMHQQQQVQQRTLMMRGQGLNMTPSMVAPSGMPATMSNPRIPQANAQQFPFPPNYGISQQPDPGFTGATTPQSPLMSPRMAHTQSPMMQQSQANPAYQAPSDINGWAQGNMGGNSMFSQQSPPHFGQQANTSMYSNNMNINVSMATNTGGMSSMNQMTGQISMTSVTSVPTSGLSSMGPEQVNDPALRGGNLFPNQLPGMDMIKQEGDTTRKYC
# Cytochrome P450 2D6 = Cytochrome P450 2D6 (Homo sapiens, UniProt P10635);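 note: CYP2D6 member of a cytochrome P450 panel assay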
# Cytochrome P450 2D6, sequence (P10635 whole entry): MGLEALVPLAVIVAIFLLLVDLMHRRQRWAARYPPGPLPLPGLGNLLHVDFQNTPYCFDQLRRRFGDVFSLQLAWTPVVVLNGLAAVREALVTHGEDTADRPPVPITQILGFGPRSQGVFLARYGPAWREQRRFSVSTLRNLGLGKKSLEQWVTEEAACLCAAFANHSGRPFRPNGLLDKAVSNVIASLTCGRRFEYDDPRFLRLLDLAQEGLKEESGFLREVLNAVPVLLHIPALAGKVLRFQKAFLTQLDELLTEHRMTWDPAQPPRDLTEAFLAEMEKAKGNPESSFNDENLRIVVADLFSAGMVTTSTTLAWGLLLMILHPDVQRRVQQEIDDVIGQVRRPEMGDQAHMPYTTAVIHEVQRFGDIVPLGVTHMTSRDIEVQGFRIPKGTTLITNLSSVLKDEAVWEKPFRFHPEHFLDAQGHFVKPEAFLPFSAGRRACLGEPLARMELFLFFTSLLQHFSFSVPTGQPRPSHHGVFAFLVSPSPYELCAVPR
# Cytochrome P450 2C19 = Cytochrome P450 2C19 (Homo sapiens, UniProt P33261); experiment: Cytochrome panel assay with activity outcomes. Panel member name: p450-cyp2c19 Compounds with AC50 equal or less than 10 uM are considered active; type: functional; conditions: read-out: AC50
# Cytochrome P450 2C19, sequence (P33261 whole entry): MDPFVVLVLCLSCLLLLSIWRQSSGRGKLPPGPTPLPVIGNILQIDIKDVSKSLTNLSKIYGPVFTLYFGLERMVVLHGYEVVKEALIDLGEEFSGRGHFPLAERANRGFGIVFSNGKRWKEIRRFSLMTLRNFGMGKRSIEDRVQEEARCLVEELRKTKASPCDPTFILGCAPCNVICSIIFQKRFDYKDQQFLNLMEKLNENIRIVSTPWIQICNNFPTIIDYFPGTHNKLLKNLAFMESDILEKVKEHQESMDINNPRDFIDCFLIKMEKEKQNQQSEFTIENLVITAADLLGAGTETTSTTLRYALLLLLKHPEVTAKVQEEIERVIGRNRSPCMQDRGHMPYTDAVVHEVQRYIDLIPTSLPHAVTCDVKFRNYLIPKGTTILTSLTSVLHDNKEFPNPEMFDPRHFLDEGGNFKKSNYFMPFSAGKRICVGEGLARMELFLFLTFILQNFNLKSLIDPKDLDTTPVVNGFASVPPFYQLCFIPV
# [15] = biological target: T5, Acyl-homoserine lactone acylase PvdQ (Pseudomonas aeruginosa (strain LESB58), UniProt Q9I194); experiment: P. aeruginosa PvdQ acylase inhibitors, dose response, biochemical, fluorescence, plate reader and imaging, cherry-picks (AID 493231)
# T5 sequence (Q9I194 whole entry): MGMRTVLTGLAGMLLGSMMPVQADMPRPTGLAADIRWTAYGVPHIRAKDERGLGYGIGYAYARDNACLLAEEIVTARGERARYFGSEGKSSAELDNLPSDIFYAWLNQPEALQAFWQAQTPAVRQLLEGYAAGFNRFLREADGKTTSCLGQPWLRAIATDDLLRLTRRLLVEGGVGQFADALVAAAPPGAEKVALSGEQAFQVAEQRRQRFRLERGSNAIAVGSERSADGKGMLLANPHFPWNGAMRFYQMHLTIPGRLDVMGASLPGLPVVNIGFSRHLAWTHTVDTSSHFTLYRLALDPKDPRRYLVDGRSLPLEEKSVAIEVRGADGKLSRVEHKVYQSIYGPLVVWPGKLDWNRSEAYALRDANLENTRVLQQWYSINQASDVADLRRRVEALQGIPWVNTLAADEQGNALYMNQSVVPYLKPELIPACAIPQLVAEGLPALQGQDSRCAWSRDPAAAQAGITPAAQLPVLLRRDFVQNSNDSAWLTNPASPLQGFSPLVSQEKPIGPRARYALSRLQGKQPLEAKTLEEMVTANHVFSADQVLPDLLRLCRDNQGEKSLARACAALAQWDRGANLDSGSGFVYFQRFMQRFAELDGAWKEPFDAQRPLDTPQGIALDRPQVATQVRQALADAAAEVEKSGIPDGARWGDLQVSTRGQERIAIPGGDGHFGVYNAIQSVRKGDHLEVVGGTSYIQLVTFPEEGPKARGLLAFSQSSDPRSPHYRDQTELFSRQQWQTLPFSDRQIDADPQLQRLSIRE
# X-box-binding protein 1 = biological target: T6, X-box-binding protein 1 (Homo sapiens, UniProt P17861); type: functional, Cricetulus griseus;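 note: confirmatory dose-response counter-screen serving a CHOP assay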
# T6 sequence (P17861 whole entry): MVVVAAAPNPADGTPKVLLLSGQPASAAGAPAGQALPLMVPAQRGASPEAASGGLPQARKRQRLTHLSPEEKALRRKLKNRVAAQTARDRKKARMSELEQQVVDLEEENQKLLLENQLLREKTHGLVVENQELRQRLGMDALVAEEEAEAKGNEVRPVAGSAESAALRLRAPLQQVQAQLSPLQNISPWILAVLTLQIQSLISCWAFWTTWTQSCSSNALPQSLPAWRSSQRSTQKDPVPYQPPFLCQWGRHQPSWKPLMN
# [16] = biological target: T7, Oxysterols receptor LXR-beta (Homo sapiens, UniProt P55055); type: functional, cell-based;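 note: Cell-based luminescence dose-response assay of agonist activity at LXR, run as a confirmatory counterscreen to a daf-12 agonist screen; HEK293 cells with Gal4-LXR fusion and GAL4-driven luciferase reporter; agonist potency from rising luciferase signal of a Gal4-LXR reporter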
# T7 sequence (P55055 whole entry): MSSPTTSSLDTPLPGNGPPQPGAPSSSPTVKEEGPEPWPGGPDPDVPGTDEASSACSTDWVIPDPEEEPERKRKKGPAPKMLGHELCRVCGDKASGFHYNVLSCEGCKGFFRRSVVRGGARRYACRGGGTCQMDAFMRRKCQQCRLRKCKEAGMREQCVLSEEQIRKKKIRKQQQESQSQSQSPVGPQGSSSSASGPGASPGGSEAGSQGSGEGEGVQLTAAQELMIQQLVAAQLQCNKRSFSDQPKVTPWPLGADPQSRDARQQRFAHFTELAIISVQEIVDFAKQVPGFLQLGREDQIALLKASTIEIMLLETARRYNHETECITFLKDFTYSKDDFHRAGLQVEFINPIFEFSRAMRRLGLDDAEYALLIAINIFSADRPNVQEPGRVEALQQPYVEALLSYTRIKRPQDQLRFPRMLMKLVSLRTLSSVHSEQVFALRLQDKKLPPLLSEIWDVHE
# BJ [17] = experiment: cytotoxicity toward BJ-TERT-LT-ST fibroblasts, dose response, cell-based, RAS-independent, luminescence (AID 1935); type: functional; conditions: Homo sapiens;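 note: BJ fibroblasts immortalized with TERT plus LT and ST oncogenes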
# [18] = cytotoxicity toward DRD oncogenic fibroblasts, dose response, cell-based, non-viral oncogenic, luminescence (AID 1934); type: functional; conditions: Homo sapiens
# BJ [19] = experiment: cytotoxicity toward BJ-TERT fibroblasts, dose response, cell-based, RAS-independent, luminescence (AID 1933); type: functional; conditions: Homo sapiens
# BJ [20] = experiment: cells; type: functional, cell-based; conditions: Homo sapiens
# Procathepsin L, sequence (P07711 whole entry): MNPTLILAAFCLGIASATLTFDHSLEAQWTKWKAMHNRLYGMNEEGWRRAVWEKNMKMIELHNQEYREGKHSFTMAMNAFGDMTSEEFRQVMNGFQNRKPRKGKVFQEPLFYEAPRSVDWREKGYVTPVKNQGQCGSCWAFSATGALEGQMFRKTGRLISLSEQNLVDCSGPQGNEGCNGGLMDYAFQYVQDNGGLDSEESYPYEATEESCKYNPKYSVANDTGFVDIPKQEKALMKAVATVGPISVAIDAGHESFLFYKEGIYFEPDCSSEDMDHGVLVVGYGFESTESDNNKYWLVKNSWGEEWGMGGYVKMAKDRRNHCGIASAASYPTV
structure (smiles),measurement,setting,value
Cc1ccc(OCCCCn2c(CO)nc3ccccc32)cc1,EC50,[1],> 50 µM (active)
COc1ccc(N2C(=O)/C(=C\Nn3cnnc3)c3ccccc3C2=O)cc1,IC50,Procathepsin L,> 59.6 µM (not active)
same,IC50,Aspartyl aminopeptidase,1.56 µM (active)
CCN(CC)c1ccc2cc(NC(=O)CCC(=O)O)c(=O)oc2c1,IC50,[2],> 80 µM (inactive)
same,EC50,[3],> 100 µM (not active)
same,EC50,[4],3.7 µM (active)
same,EC50,[5],0.491 µM (active)
same,EC50,[6],7.36 µM (active)
same,EC50,HT-1080,> 50 µM (not active)
same,IC50,[7],> 100 µM (not active)
same,EC50,[8],120 µM (inconclusive)
same,EC50,[9],< 0.1 µM (active)
same,IC50,[10],> 60 µM (not active)
COC(=O)c1[nH]c2cc(OC)c(OC)cc2c1NC(=O)Oc1ccccc1,EC50,[11],> 79.4 µM (not active)
same,IC50,[12],28.8 µM (active)
same,EC50,[13],97.7 µM (not active)
same,EC50,[14],90.7 µM (not active)
CCOC(=O)c1ccc(S(=O)(=O)N2CCN(CCC#N)CC2)cc1,EC50,[1],> 50 µM (active)
COc1ccc(/C=C/C(=O)c2ccoc2)cc1,AC50,Cytochrome P450 2D6,25.1 µM (inconclusive)
same,AC50,Cytochrome P450 2C19,14.1 µM (inconclusive)
same,AC50,[15],11.4 µM (active)
S=C(Nc1cc(Cl)ccc1Cl)Nn1cnnc1,IC50,Procathepsin L,> 59.6 µM (not active)
same,IC50,Aspartyl aminopeptidase,0.662 µM (active)
FC(F)C(F)(F)C(F)(F)C(F)(F)c1cc(-c2ccccc2)[nH]n1,Absolute IC50 (XBP1),X-box-binding protein 1,10 µM
O=C(Nc1cc(Cl)ccc1Cl)Nn1cnnc1,IC50,Procathepsin L,> 59.6 µM (not active)
same,IC50,Aspartyl aminopeptidase,0.5 µM (active)
Cc1cc(S(=O)(=O)NCC2CC2)c(Cl)cc1Cl,AC50,[15],1.1 µM (active)
COc1ccc(-c2ccc(OC)cc2)cc1,AC50,[15],78.8 µM (active)
O/C(=C\C=N\c1cccc(O)c1)c1ccccc1,EC50,[3],1.03 µM (active)
same,EC50,cells,> 67.6 µM (inactive)
same,EC50,HT-1080,> 50 µM (not active)
same,EC50,[16],> 67.6 µM (inactive)
COc1ccc(-c2nc3ccccc3[nH]2)cc1,EC50,BJ [17],22.7 µM (active)
same,EC50,[3],11 µM (active)
same,EC50,HT-1080,20.3 µM (active)
same,EC50,[18],9.35 µM (active)
same,EC50,BJ [19],8.49 µM (active)
same,EC50,BJ [20],19.1 µM (active)
O=c1c2ccccc2[nH]c2ccc(F)cc12,EC50,[1],> 50 µM (active)
